Test results: patent US9790253B2, “OSW-1 analogs and conjugates, and uses thereof” (priority 2011, dated 2017)

Key:
[1] = tested on: OSBP1 localization in HCT-116 cells; assay: OSBP1 localization by immunofluorescence microscopy, HCT-116; assay type: cell-based, human; details: 4 h treatment
Experimental: (§1) Immunofluorescence microscopy. HCT-116 or A549 (adenocarcinomic human alveolar basal epithelial) cells were plated on coverslips in 6-well plates. After 72 h, the culture media was removed and replaced with media containing either compound or vehicle control. At the indicated time-points, the cells were fixed for 10 min using 3.7% formaldehyde in PBS. The coverslips were washed with PBS and permeabilized for 5 min with 0.5% Triton X-100 in PBS. Following PBS washing, the coverslips were blocked for 30 min using Image-iT™ FX (Invitrogen), washed with PBS, and then blocked for 30 min at room temperature (RT) with 1% BSA in PBS (BSA/PBS). The coverslips were then incubated overnight at 4° C. with a primary antibody solution in BSA/PBS. The coverslips were washed with BSA/PBS and incubated for 60 min at RT with Alexa Fluor®-conjugated secondary antibodies (Invitrogen) in BSA/PBS, with the final 30 min including incubation with Hoescht 33258. The coverslips were then washed sequentially with BSA/PBS, PBS, and water and finally mounted on microscope slides using Aqua Poly/Mount (Polysciences Inc.). Imaging data was acquired using Zeiss LSM 510 META scanning confocal microscope.
Although the function of OSBP1 is not yet fully elucidated, several cellular activities have been observed. For instance, OSBP1 translocates from cytoplasmic sites to the trans-Golgi network (TGN) upon addition of 25-OHC to cells. HCT-116 cells were treated with ORPphilins for short time periods (4 h) and the effects on OSBP1 localization monitored using immunofluorescence microscopy.
OSBP1 (green) and trans-Golgi protein P230 (red) were visualized in HCT-116 cells using indirect immunofluorescence microscopy. Cells were treated with compound for 4 h, fixed with 3.7% formaldehyde/PBS, washed, and permeabilized using 0.5% Triton X-100 in PBS. Proteins were labelled using specific primary antibodies against OSBP1 and P230 overnight at 4° C. After washing, cells were treated with Alexa Fluor 488 and Alexa Fluor 546 secondary antibodies for 1 h at RT.

ORP4L-myc-his = target: T1, ORP4L-myc-his (Homo sapiens, UniProt Q969R2); assay: [3H]-25-hydroxycholesterol charcoal-dextran binding assay with ORP4L-myc-his; details: read-out: [^3H]-25-OHC K1 (nM) ORP4L-myc-his; competition with 20 nM [3H]-25-OHC, HEK-293T S100 lysate, 4° C., 16 h
T1 sequence (Q969R2 1-916): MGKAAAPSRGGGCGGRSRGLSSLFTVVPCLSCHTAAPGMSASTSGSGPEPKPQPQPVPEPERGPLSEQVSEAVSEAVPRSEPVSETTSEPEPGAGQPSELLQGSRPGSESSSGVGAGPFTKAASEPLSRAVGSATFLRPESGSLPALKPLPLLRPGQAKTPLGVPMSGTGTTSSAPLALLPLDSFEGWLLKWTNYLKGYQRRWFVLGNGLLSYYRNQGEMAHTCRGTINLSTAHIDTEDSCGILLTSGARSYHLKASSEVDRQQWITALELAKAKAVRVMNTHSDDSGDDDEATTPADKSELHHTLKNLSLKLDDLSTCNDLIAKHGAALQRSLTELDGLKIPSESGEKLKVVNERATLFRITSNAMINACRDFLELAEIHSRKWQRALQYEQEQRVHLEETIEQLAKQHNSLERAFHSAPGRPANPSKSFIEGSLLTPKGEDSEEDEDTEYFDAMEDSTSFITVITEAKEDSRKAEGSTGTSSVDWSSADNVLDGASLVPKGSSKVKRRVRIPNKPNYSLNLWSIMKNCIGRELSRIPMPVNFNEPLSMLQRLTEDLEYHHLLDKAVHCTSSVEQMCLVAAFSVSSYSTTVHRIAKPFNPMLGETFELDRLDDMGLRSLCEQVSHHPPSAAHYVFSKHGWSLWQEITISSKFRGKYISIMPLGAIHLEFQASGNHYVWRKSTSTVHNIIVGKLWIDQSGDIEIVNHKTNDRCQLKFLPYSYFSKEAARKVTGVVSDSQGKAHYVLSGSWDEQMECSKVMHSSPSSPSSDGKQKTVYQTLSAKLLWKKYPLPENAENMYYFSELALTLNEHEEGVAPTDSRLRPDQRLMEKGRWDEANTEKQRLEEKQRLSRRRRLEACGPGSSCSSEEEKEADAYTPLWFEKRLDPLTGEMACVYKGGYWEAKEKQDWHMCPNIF
Experimental: [^3H]-25-Hydroxycholesterol charcoal-dextran binding assay. […] These vectors were transfected into HEK-293T cells using Lipofectamine™2000 (Invitrogen), and 48 h after transfection, on-plate lysis of the transfected cells with the M-Per®/HALT™ with EDTA (ThermoScientific) reagent was performed, followed by ultracentrifugation at 100,000 g. The S100 lysate was diluted to 0.2 mg/mL, aliquoted and stored at −80° C. until use. The HEK-293T OSBP1-, ORP4L- or lacZ-myc-his lysate was incubated with [^3H]-25-hydroxycholesterol at 4° C. for 16 h in 96-well plates. After incubation, charcoal/dextran (C/D) was added to the wells for 30 min of shaking at RT, followed by centrifugation for 15 min at 1900 g to pellet the C/D. The C/D-cleared lysate was added to MicroScint™-20 (PerkinElmer) scintillation fluid, and the remaining protein-bound radiolabel was quantified using a TopCount™ scintillation counter. [^3H]-25-hydroxycholesterol binding curves and competition curves were repeated at least three times.
Lysates were thawed on ice, with brief periods of hand warming. Both the ^3H-25-OHC direct binding assays and the ^3H-25-OHC competition binding assays were set up similarly, with a large stock of binding assay lysate being prepared, then 73.5 μL of the binding assay mixture dispensed using a multi-channel pipettor into “V”-shaped 96-well plates. For the ^3H-25-OHC direct binding assay, 1.5 μL of ^3H-25-OHC and ^3H-25-OHC/40×25-OHC added to the wells in dilutions in 100% ethanol. For the ^3H-25-OHC competition binding assays, ^3H-25-OHC was added to the large stock of binding assay lysate to a final concentration of 20 nM. This ^3H-25-OHC-containing binding lysate was then dispensed using a multi-channel pipettor into the 96-well plates. Then, 1.5 μL of a serial dilution of the inhibitors in either 100% ethanol (25-OHC) or DMSO (the ORPphilins) was added to each well.
The binding lysate used in each well of the 96-well plate consisted of 60 μL of 0.2 mg/mL S100 lysate, 7.5 μL 20% PVA, and 5.6 μL 2M KCl. For ^3H-25-OHC binding curve experiments, 0.4 μL of buffer was then added (total volume per well: 73.5 μL). For the ^3H-25-OHC inhibition competition assays, 0.11 μL of 13.2 μM ^3H-25-OHC and 0.29 μL binding buffer was added for each well (total volume per well: 73.5 μL).
Binding assays were incubated, standing, for 16 h at 4° C. Then 30 μL of the rt C/D solution was multichannel pipetted into new “V’ shaped 96-well plates, and 60 μL of the binding lysate mixture was then added. The plates were briefly, lightly vortexed (˜10 sec), 10 and then rocked at 250 rpm for 30 min at rt. The plates were then centrifuged at 1900 g for 15 min at 4° C. in Microplate Carriers (Sorvall cat. #75006449S) in a Sorvall Legend RT centrifuge. Carefully so as to not disturb the C/D pellet, 30 μL of the supernatant was transferred to 170 μL of Microscint-20 in the OptiPlates. The plates were sealed with the TopSealA-Films, and vigorously vortexed (max speed, >1 min). ^3H-25-OHC detection in the wells was then performed using a TopCount Scintillation detector, counting each well for 2 min. Data was graphed and analyzed using GraphPad PrismS, using non-linear regression to determine KD and K1 values.
Binding experiments were performed at 4° C. for 16 h. Unbound sterol was removed using dextran-coated charcoal, and protein-bound sterol left in the supernatant was quantified by scintillation counting. Ki-values were determined as mean±s.d. from at least three independent experiments.

OSBP1-myc-his = target: T2, OSBP1-myc-his (Homo sapiens, UniProt P22059); assay: [3H]-25-hydroxycholesterol charcoal-dextran binding assay with OSBP1-myc-his; details: competition with 20 nM [3H]-25-OHC, HEK-293T S100 lysate, 4° C., 16 h; read-out: [^3H]-25-OHC K1 (nM) OSBP1-myc-his
T2 construct: made in house; host or cells: HEK-293T (transient transfection; S100 lysate, not purified)
T2 sequence (P22059 1-807): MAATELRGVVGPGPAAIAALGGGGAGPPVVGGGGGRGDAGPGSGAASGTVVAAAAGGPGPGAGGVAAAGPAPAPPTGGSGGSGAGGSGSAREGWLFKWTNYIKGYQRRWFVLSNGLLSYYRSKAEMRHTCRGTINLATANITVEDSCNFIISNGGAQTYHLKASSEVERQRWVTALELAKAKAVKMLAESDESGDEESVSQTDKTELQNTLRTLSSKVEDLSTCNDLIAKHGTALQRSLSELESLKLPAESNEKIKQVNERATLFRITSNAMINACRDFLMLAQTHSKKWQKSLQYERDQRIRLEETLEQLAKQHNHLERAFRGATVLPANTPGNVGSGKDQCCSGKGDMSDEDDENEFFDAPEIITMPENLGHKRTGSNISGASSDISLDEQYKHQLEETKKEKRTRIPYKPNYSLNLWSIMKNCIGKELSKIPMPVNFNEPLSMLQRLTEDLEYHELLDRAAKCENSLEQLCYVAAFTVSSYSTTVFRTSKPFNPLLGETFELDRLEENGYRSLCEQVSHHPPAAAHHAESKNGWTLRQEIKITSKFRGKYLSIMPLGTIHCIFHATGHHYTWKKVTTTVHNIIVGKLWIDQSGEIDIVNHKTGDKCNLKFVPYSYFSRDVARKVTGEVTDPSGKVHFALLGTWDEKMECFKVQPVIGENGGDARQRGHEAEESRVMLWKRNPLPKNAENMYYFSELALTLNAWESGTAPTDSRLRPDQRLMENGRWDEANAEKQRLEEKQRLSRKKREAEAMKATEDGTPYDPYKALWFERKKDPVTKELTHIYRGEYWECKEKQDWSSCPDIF
Text: [^3H]-25-Hydroxycholesterol charcoal-dextran binding assay.
Methods are described above in the General Methods section.

[2] = tested on: OSBP1 localization in A549 cells; assay: OSBP1 localization by immunofluorescence microscopy, A549; assay type: cell-based, human
Experimental: as §1
Perturbations of OSBP1 localization by 1, 2, and 4b in A549 cells were also observed.

HCT-116 p21^−/− = details: cited from earlier work
HCT-116 p21^+/+ = details: cited from earlier work
HCT-116 cells = assay: Growth inhibition with 25-OHC co-administration; assay type: cell-based, human; details: 10 μM 25-OHC for 1 and 2
Experimental: 25-OHC (11) is a high-affinity ligand of OSBP1 and ORP4L that is not cytotoxic at concentrations up to 10 μM. Example 1 established that the ORPphilins compete with 25-OHC for binding to OSBP1 and ORP4L (FIG. 2D,E). Therefore, if OSBP1 and ORP4L mediate the biological activities of these compounds, co-administration of sub-lethal doses of 25-OHC with the ORPphilins should inhibit binding of the ORPphilins to OSBP1 and ORP4L, thereby desensitizing cells to the cytotoxic effects of the ORPphilins.

[3] = tested on: HCT-116 p21^−/− cells with OSBP1-targeting shRNA; assay: OSBP1 shRNA knockdown/dose-shift experiment; assay type: cell-based, human; details: shOSBP1 vs shNT, 72 h
Text: FIG. 3A is a series of four bar graphs depicting knockdown/dose-shift experiment in HCT-116 p21^−/− cells stably transfected with either OSBP1-targeting shRNA (shOSBP1) or non-targeting shRNA (shNT). Bars represent s.d. of three or four individual experiments. * P=0.0002 (n=3); ** P=0.0006 (n=4); *** P=0.0003 (n=3) compared to shNT cells (two-tailed students t-test).
To ascertain if the antiproliferative activity of the ORPphilins depended on the levels of OSBP1 and ORP4L in cells, short hairpin RNA (shRNA) knockdown of OSBP1 expression was performed and then its effect on the growth inhibitory activity of 1, 2, and 4a measured. […] Similar results were obtained in HeLa cells. Overexpression of OSBP1-myc-his or ORP4L-myc-his (FIG. 3C) for 48 h desensitized HeLa cells to the antiproliferative activity of 1, 2, or 4a by ˜2-5-fold (FIG. 3D). However, taxol-induced growth inhibition was not affected by overexpression of OSBP1-myc-his or ORP4L-myc-his (FIG. 3D).

CHO-K1 cells = assay: Sphingomyelin biosynthesis, [3H]-serine pulse-labeling, CHO-K1; assay type: cell-based
Experimental: Sphingomyelin is biosynthesized from ceramide at the Golgi apparatus. Ceramide is primarily transported from the ER to the Golgi by ceramide transport protein (CERT), and the transport activity of CERT is both OSBP1- and VAP-A dependent. […] To determine whether the ORPphilins affect sphingomyelin synthesis, pulse-labeling with [^3H]-serine was performed in CHO-K1 and HCT-116 cells and the amount of tritium incorporated into sphingomyelin and other lipids then measured. Cells were treated with vehicle or compound for 6 h, and in the last 2 h the cells were pulsed with 10 μCi [^3H]-serine. Lipids were extracted and isolated by TLC, and label incorporation into sphingomyelin was measured by scintillation counting.

[4] = tested on: HeLa cells overexpressing OSBP1(M446W)-myc-his; assay: Overexpression-viability assay, OSBP1(M446W)-myc-his; assay type: cell-based; details: 48 h
Experimental: (§2) Overexpression-viability assays with wild-type and mutant OSBP/ORP4L constructs were carried out by transfecting HeLa cells with the appropriate plasmids using Lipofectamine™ LTX with PLUS™ reagent (Invitrogen) as instructed, and after 8 h of transfection, the cells were re-plated for the cell viability assay, performed as described above. Expression levels were evaluated by immunoblotting at the time of dosing.
(§3) For additional support that OSBP1 and ORP4L are targets of the ORPphilins, dominant drug-resistant alleles of these proteins were sought. 15 OSBP1 residues inside and outside the region of the protein previously reported to mediate sterol binding were mutated (FIG. 4C). The growth inhibition induced by the ORPphilins was determined in HeLa cells overexpressing either wild-type or mutant OSBP1-myc-his proteins. Expression of wt OSBP1-myc-his and mutant OSBP1-myc-his were nearly equivalent as measured by western blot.
(§4) The same mutant caused a 3.9-fold reduction in the antiproliferative activity of OSW-1 (2) (FIG. 4E2) and a 2.7-fold reduction in the activity of schweinfurthin A (4a) (FIG. 4E3). […] The antiproliferative activity of taxol was unaffected by expression of these two OSBP1 mutant proteins (FIGS. 4E4, 4E8).

[5] = tested on: HeLa cells overexpressing OSBP1-myc-his or ORP4L-myc-his; assay: Overexpression-viability assay, OSBP1-myc-his or ORP4L-myc-his; assay type: cell-based; details: 48 h, vs lacZ
Experimental: as §2

[6] = tested on: HeLa cells overexpressing OSBP1(V582M); assay: Overexpression-viability assay, OSBP1(V582M)-myc-his; assay type: cell-based; details: 48 h
Experimental: as §2, §3, §4

With ritterazine B as the compound, how does the OSBP1 localization [1] read?
The OSBP1 localization was “effect was also observed”.

What about the Ki (ORP4L-myc-his) of the same compound?
The Ki was greater than 360 nM.

And the Ki (OSBP1-myc-his)?
The Ki was 28 ± 4 nM.

For `COc1cc(/C=C/c2cc(O)c(C/C=C(\C)CCC=C(C)C)c(O)c2)cc2c1O[C@]1(C)C[C@@H](O)[C@@H](O)C(C)(C)[C@H]1C2` [Schweinfurthin B, schweinfurthin B], which OSBP1 localization [2] is on record?
Its OSBP1 localization is “perinuclear OSBP1-staining similar to 25-OHC”.

What does the source list for `CC(/C=C/C=C(C)/C=C/C=C(\C)C(=O)O)=C1/C(=O)C[C@H]2[C@@]3(C)CCC(=O)C(C)(C)[C@@H]3CC[C@]12C` [(−)-stellettin E, (−)-Stellettin E]?
GI50 (HCT-116 p21^−/−): 39 nM; times more cytotoxic to HCT-116 p21−/− than to parental HCT-116 (HCT-116 p21^−/−): 117 times; GI50 (HCT-116 p21^+/+): 4570 nM

With `C[C@H]1CCC/C=C/[C@@H]2C[C@H](O)C[C@H]2[C@H](O)/C=C/C(=O)O1` [brefeldin A] as the compound, how does the “effect of 25-OHC co-administration on the antiproliferative activity” value (HCT-116 cells) read?
The value was “did not affect”.

What does the source list for `CC(=O)O[C@H]1C(=O)[C@@]2(C)[C@H]([C@H](OC(=O)c3ccccc3)[C@]3(O)C[C@H](OC(=O)[C@H](O)[C@@H](NC(=O)c4ccccc4)c4ccccc4)C(C)=C1C3(C)C)[C@]1(OC(C)=O)CO[C@@H]1C[C@@H]2O` [taxol]?
sensitization by OSBP1 knockdown (GI50 shift) [3]: did not sensitize; inhibition of SM biosynthesis (negative controls) (CHO-K1 cells): did not occur; effect of 25-OHC co-administration on the antiproliferative activity (HCT-116 cells): did not affect; reduction in antiproliferative activity at the GI50 level, OSBP1(M446W) vs wt OSBP1 [4]: unaffected; desensitization by overexpression of OSBP1-myc-his or ORP4L-myc-his [5]: not affected; reduction in antiproliferative activity, OSBP1(V582M) vs wt OSBP1 [6]: unaffected

Which “inhibition of SM biosynthesis (negative controls)” value (CHO-K1 cells) does the source give for `C/C=C(/C)C(=O)O[C@H]1C(C)=C2[C@H]([C@@H]1OC(=O)CCCCCCC)[C@@](C)(OC(C)=O)C[C@H](OC(=O)CCC)[C@@]1(O)[C@H]2OC(=O)[C@@]1(C)O` [thapsigargin] here?
Its value is “did not occur”.
